# Measurements published in patent US9480677B2, “Enantiomers of spiro-oxindole compounds and their uses as therapeutic agents” (Xenon Pharmaceuticals Inc., priority 2009, dated 2016).
# Tests used:
# [1] = test system: histamine-induced pruritis; experiment: Histamine-induced pruritis in vivo assay; parameters: species or system male ICR mice; conditions: scored over 40 minutes
# Description: Histamine induces pruritis (itching) in humans. Accordingly, this assay evaluates the efficacy of topically and orally administered (S)-enantiomer of the invention on histamine-induced pruritis in male ICR mice. […] One day prior to testing, the scapular regions on the animals were shaved with hair clippers. On the testing day, the animals were habituated for 60 minutes in the test chamber comprising of a clear plastic tube placed vertically on a flat surface. After the habituation period, the animals were removed from the plastic tube, placed in a restrainer, and injected with histamine at the shaved scapular region. The injections were made intradermally into the skin in small injection volumes (10 μL) using a Hamilton syringe. […] Immediately after the injections, the animals were returned to the test chambers and observed by cameras placed above the test chambers for a total of 50 minutes. The cameras were connected to a computer where digital video files were created, saved, and analyzed. The number of itching bouts was scored over 40 minutes. An “itching bout” was defined as the lifting of a hind leg, using it to scratch the scapular region, and then placing it back on the ground. […] The data were analyzed using GraphPad Prism 5 statistical analysis software and an unpaired t-test was used for univariate analysis. Results are expressed as mean±SEM. […]
# [2] = test system: chronic constriction injury neuropathic pain; experiment: Neuropathic pain model; chronic constriction injury (CCI); assay type: in vivo; conditions: topical ointment containing 2% (w/v)
# hNav1.7 [3] = biological target: T1, hNav1.7 (Homo sapiens, UniProt Q15858); experiment: cell-based
# hNav1.7 [4] = biological target: T1, hNav1.7; experiment: Electrophysiological assay, whole cell voltage clamp; assay type: cell-based; parameters: expressed in transfected cells; host or cells: HEK293
# Description: HEK293 Cells expressing hNav1.7 were cultured in DMEM growth media (Gibco) with 0.5 mg/mL G418, +/−1% PSG, and 10% heat-inactivated fetal bovine serum at 37° C. and 5% CO2. For electrophysiological recordings, cells were plated on 10 mm dishes.
# Whole cell recordings were examined by established methods of whole cell voltage clamp (Bean et al., op. cit.) using an Axopatch 200B amplifier and Clampex software (Axon Instruments, Union City, Calif.). All experiments were performed at ambient temperature. Electrodes were fire-polished to resistances of 2-4 Mohms Voltage errors and capacitance artifacts were minimized by series resistance compensation and capacitance compensation, respectively. Data were acquired at 40 kHz and filtered at 5 kHz. The external (bath) solution consisted of: NaCl (140 mM), KCl (5 mM), CaCl2 (2 mM), MgCl2 (1 mM), HEPES (10 mM) at pH 7.4. The internal (pipette) solution consisted of (in mM): NaCl (5), CaCl2 (0.1), MgCl2 (2), CsCl (10), CsF (120), HEPES (10), EGTA (10), at pH 7.2.
# To estimate the steady-state affinity of compounds for the resting and inactivated state of the channel (Kr and Ki, respectively), 12.5 ms test pulses to depolarizing voltages from −60 to +90 m V from a holding potential of −120 m V was used to construct current-voltage relationships (1-V curves). A voltage near the peak of the IV-curve (−30 to 0 m V) was used as the test pulse throughout the remainder of the experiment. Steady-state inactivation (availability) curves were then constructed by measuring the current activated during a 8.75 ms test pulse following 1 second conditioning pulses to potentials ranging from −120 to −10 mV.
# The steady-state voltage-dependence of binding of a compound to a voltage-gated sodium channel was determined by measuring the blockage of the ionic current at two holding potentials. Binding to rested-state channels was determined by using a holding potential of −120 mV, so that maximal availability was achieved. Binding to inactivated-state channels was evaluated at a holding potential such that only about 10% of the channels were available to open. The membrane potential was held at this voltage for at least 10 seconds so that drug binding could equilibrate.
# The apparent dissociation constant at each voltage was calculated with the equation:
# [formula] where Kd is the dissociation constant (either Kr or Ki), and [Drug] is the concentration of the test compound.
# [5] = test system: CFA induced chronic inflammatory pain; experiment: CFA induced chronic inflammatory pain, von Frey tactile allodynia; assay type: in vivo, rats; conditions: for % Increase From Base Line, 8% topical: 8% (w/v) topical
# Description: In this test, tactile allodynia is assessed with calibrated von Frey filaments. […] Animals were allowed to recover from the anaesthesia and the baseline thermal and mechanical nociceptive thresholds of all animals were assessed one week after the administration of CFA. All animals were habituated to the experimental equipment for 20 minutes on the day prior to the start of the experiment. The test and control articles were administrated to the animals, and the nociceptive thresholds were measured at defined time points after drug administration to determine the analgesic responses to each of the six available treatments. The time points used were previously determined to show the highest analgesic effect for each test compound. […] Each enantiomer was dosed at 10, 30, 100 or 200 mg/Kg. The plasma concentration achieved with each dose was also determined and the reversal of pain response (as the % increase from baseline threshold) is plotted as a function of plasma concentration. The (S)-enantiomer of the invention was also administered topically to the animals in varying dosages (1%, 2%, 4% and 8% (w/v)) and the nociceptive thresholds measured at defined time points after drug administration to determine the analgesic responses to each of the available treatments. The time points used were previously determined to show the highest analgesic effect for each test compound. The response thresholds of the animals to tactile stimuli were measured using the Model 2290 Electrovonfrey anesthesiometer (IITC Life Science, Woodland Hills, Calif.) following the Hargreaves test. The animals were placed in an elevated Plexiglas enclosure set on a wire mesh surface. After 15 minutes of accommodation, a pre-calibrated Von Frey hair was applied perpendicularly to the plantar of the ipsilateral hind paws of the animals, with sufficient force, measured in grams, to elicit a crisp response of the paw. The response indicated a withdrawal from the painful stimulus and constituted the efficacy endpoint. […] This cut off force is used because it represent approximately 10% of the animals' body weight and it serves to prevent raising of the entire limb due to the use of stiffer hairs, which would change the nature of the stimulus. The data were expressed as percent increase from baseline threshold measured in grams.
# [6] = von Frey mechanical paw withdrawal threshold
# [7] = von Frey mechanical paw withdrawal threshold, listed as (S)-enantiomer
# T1 sequence (Q15858 whole entry): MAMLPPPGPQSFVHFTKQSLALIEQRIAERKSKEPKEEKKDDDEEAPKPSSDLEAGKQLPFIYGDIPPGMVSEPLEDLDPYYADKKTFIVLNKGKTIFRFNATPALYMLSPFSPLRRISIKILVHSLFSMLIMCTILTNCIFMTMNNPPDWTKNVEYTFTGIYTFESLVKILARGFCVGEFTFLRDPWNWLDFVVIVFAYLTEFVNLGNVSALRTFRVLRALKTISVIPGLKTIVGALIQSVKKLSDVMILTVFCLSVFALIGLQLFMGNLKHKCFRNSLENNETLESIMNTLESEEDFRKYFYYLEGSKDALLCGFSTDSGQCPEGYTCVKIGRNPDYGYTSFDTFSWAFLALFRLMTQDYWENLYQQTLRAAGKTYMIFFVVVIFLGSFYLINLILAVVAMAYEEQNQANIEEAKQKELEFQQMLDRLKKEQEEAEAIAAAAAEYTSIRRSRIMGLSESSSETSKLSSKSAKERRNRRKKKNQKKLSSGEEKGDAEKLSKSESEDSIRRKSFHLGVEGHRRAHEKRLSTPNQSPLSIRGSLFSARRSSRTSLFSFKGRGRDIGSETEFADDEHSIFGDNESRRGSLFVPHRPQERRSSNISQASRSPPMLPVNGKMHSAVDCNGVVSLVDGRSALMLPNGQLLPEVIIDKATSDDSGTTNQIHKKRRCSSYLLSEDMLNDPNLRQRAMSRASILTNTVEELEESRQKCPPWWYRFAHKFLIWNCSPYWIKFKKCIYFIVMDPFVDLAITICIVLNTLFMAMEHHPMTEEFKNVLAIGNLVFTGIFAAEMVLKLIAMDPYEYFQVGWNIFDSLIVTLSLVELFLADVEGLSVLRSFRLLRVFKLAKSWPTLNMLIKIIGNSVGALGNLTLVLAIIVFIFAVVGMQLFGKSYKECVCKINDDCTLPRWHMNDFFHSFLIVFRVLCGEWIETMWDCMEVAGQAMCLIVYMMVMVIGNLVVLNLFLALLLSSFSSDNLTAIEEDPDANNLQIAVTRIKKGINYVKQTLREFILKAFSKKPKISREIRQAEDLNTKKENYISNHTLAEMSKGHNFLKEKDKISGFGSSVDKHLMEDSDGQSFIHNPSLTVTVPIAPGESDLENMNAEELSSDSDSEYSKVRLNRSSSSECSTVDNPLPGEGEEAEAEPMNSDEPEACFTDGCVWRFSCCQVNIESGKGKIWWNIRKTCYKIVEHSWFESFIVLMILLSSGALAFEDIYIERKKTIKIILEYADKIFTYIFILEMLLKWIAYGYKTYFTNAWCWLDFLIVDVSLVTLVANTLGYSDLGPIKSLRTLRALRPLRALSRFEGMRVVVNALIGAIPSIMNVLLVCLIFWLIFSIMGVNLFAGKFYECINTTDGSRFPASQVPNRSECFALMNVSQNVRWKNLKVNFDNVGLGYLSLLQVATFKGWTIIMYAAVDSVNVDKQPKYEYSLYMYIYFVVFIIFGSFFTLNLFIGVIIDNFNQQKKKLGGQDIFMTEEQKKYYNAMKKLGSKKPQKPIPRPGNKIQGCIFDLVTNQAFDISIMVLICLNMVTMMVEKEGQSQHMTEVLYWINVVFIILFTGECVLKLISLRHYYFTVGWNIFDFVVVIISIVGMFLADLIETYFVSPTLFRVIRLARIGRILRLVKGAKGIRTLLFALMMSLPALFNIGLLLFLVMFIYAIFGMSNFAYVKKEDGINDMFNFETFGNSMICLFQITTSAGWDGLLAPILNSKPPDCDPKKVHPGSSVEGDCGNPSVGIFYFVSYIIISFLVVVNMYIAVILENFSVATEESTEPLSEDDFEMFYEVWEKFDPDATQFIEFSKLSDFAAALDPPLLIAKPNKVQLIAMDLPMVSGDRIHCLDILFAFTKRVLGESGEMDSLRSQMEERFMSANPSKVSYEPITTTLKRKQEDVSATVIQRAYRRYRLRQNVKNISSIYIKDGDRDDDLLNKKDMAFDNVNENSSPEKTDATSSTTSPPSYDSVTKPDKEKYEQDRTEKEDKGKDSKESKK
smiles,measurement,setting,value
"O=C1N(Cc2ccc(C(F)(F)F)o2)c2ccccc2[C@]12COc1cc3c(cc12)OCO3 [(I-S), (S)-1′-{[5-(trifluoromethyl)furan-2-yl]methyl}spiro[furo[2,3-f][1,3]benzodioxole-7,3′-indol]-2′(1′H)-one]",total number of itching bouts,"[1]; 50 mg of 8% (w/v) topical, n=16, vehicle 134.3±13.31",89.00±10.51 itching bouts
same,total number of itching bouts,"[1]; 50 mg/Kg oral gavage, n=8, vehicle 42.88±6.667",17.25±6.310 itching bouts
same,"reversal of pain responses, percent increase from baseline",[2],reversed pain responses
same,IC50,hNav1.7 [3],3 nM
same,potency in binding to the inactivated-state of hNav1.7 relative to the (R)-enantiomer,hNav1.7 [4]; (S)- versus (R)-enantiomer,about 5 times
same,Ki,hNav1.7 [4]; affinity for the inactivated state of hNav1.7,161 nM
same,Kd,"hNav1.7 [4]; affinity for the rested/closed state of hNav1.7, holding potential −120 mV, read-out: Kr",> 10000 nM
same,"maximal effect, reversal of pain response","[5]; oral dosing, 200 mg/Kg, compared with the other enantiomer",greater maximal effect
same,"% Increase From Base Line, 1% topical",[5]; [6],0.62%
same,"% Increase From Base Line, 1% topical",[5]; [7],did not demonstrate an observable increase
same,"% Increase From Base Line, 2% topical","[5]; von Frey mechanical paw withdrawal threshold, 2% (w/v) topical",16.71%
same,"% Increase From Base Line, 4% topical","[5]; von Frey mechanical paw withdrawal threshold, 4% (w/v) topical",28.79%
same,"% Increase From Base Line, 8% topical",[5]; [6],45.06%
same,"% Increase From Base Line, 8% topical",[5]; [7],45.1%
